In the supplement of paper PMC10307832:

Columns and labels:
Experiment in all cases: relative viability (nuclei count vs DMSO), 5 days (fraction); higher = more cells survive
[1] = compound: Cc1cc(Nc2cc(N3CCN(C)CC3)nc(Sc3ccc(NC(=O)C4CC4)cc3)n2)n[nH]1 [Tozasertib] + CS(=O)(=O)N1CCN(Cc2cc3nc(-c4cccc5[nH]ncc45)nc(N4CCOCC4)c3s2)CC1 [Pictilisib] (partner 1 µM)
Method in brief: (§1)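 Lung cancer cell lines in 1536-well plates got either a single drug or a fixed anchor-drug dose together with five library-drug doses (not always all listed) in √10 steps, by pin tool, on the day after seeding. Nuclei were counted after 5 days, and relative viability is the treated-to-vehicle ratio of nuclei counts. Values are medians of duplicate plates.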

[2] = compound: Cc1cc(Nc2cc(N3CCN(C)CC3)nc(Sc3ccc(NC(=O)C4CC4)cc3)n2)n[nH]1 [Tozasertib] + CC(C)C[C@H](NC(=O)[C@H](Cc1ccccc1)NC(=O)c1cnccn1)B(O)O [Bortezomib] (partner 0.002 µM)
Method in brief: as §1

[3] = compound: Cc1cc(Nc2cc(N3CCN(C)CC3)nc(Sc3ccc(NC(=O)C4CC4)cc3)n2)n[nH]1 [Tozasertib] + COc1cccc2cc(-c3nc([C@H]4CC[C@H](C(=O)O)CC4)n4ncnc(N)c34)[nH]c12 [OSI-027] (partner 0.5 µM)
Method in brief: as §1

[4] = compound: Cc1cc(Nc2cc(N3CCN(C)CC3)nc(Sc3ccc(NC(=O)C4CC4)cc3)n2)n[nH]1 [Tozasertib]
Method in brief: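 Hoechst staining, done together with fixation and permeabilisation, marked nuclei for 4× imaging and MetaXpress counting. This followed 5 days without medium change after lung cancer cell lines, kept overnight at 37 °C in 1536-well plates, were pinned with five library-drug doses (not always all listed) spaced by √10 on vehicle-anchored plates. Viability is the ratio of treated-well to vehicle-well nuclei, expressed as a median across plates. Plates passed only at control CV below 25% with at least one doubling.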

| Cell Line | relative viability ([1]; first compound 0.004 µM) | relative viability ([1]; first compound 0.01265 µM) | relative viability ([1]; first compound 0.04 µM) | relative viability ([1]; first compound 0.1265 µM) | relative viability ([2]; first compound 0.004 µM) | relative viability ([2]; first compound 0.01265 µM) | relative viability ([2]; first compound 0.04 µM) | relative viability ([2]; first compound 0.1265 µM) | relative viability ([3]; first compound 0.004 µM) | relative viability ([3]; first compound 0.01265 µM) | relative viability ([3]; first compound 0.04 µM) | relative viability ([3]; first compound 0.1265 µM) | relative viability ([4]; 0.004 µM) | relative viability ([4]; 0.01265 µM) | relative viability ([4]; 0.04 µM) | relative viability ([4]; 0.1 µM, anchor plate) | relative viability ([4]; 0.1265 µM) |
| --- | --- | --- | --- | --- | --- | --- | --- | --- | --- | --- | --- | --- | --- | --- | --- | --- | --- |
| NCI-H1755 | 0.422 | 0.395 | 0.444 | 0.232 | 0.938 | 0.927 | 1.04 | 0.626 | 0.661 | 0.636 | 0.725 | 0.601 | 1.03 | 0.994 | 1.04 | 0.577 | 0.953 |
| NCI-H1792 | 0.297 | 0.203 | 0.241 | 0.167 | 0.771 | 0.88 | 1.1 | 0.96 | 0.716 | 0.579 | 0.81 | 0.621 | 1.16 | 0.781 | 1.01 |  | 0.613 |
| NCI-H1915 | 1.06 | 0.862 | 0.872 | 0.635 | 1.07 | 0.924 | 0.953 | 0.727 | 0.669 | 0.592 | 0.658 | 0.569 | 1.04 | 0.986 | 0.934 | 0.435 | 0.795 |
| NCI-H1975 | 0.323 | 0.278 | 0.295 | 0.238 | 0.319 | 0.408 |  | 0.338 | 0.968 | 0.758 |  | 0.683 | 1.04 | 0.91 | 1.06 | 0.759 | 0.85 |
| NCI-H1993 |  | 0.759 |  | 0.632 | 1.06 | 1.05 | 1.33 | 0.805 | 0.485 | 0.505 | 0.569 | 0.524 | 1.03 | 0.782 | 0.939 | 0.58 | 0.676 |
| NCI-H2009 | 0.851 | 0.79 |  | 0.552 | 1.12 | 0.938 | 1.08 | 0.811 | 0.635 | 0.614 | 0.668 | 0.51 | 1.03 | 0.951 | 1 | 0.74 | 0.885 |
| NCI-H2023 | 0.306 | 0.287 | 0.296 | 0.0957 | 1.2 | 0.905 | 1.16 |  | 0.391 | 0.325 | 0.488 | 0.285 | 0.999 | 0.985 | 1.14 | 0.369 | 0.605 |
| NCI-H2085 | 0.454 | 0.421 | 0.486 | 0.266 | 1.01 | 1.07 | 1.11 | 0.792 | 0.769 | 0.726 | 0.828 | 0.695 | 1.02 | 0.982 | 0.984 | 0.84 | 0.915 |
| NCI-H2087 | 0.928 | 0.885 | 0.933 | 0.714 | 0.83 | 0.787 | 0.78 | 0.723 | 0.638 | 0.576 | 0.64 | 0.444 | 1.16 | 1.02 | 1.11 | 0.254 | 0.581 |
| NCI-H2126 | 0.505 | 0.529 | 0.532 | 0.426 | 1.12 | 1.1 | 1.22 | 1.14 | 0.777 | 0.728 | 0.773 | 0.657 | 0.996 | 1.06 | 1.04 | 0.846 | 0.925 |
| NCI-H2228 | 0.509 |  | 0.326 | 0.355 | 1.31 |  |  | 0.434 | 0.703 | 0.506 | 0.528 | 0.29 | 1.08 | 1.07 | 1.03 | 0.265 | 0.607 |
| NCI-H2347 | 0.723 | 0.763 | 0.648 | 0.389 | 1.18 | 0.961 | 1 | 0.658 | 0.447 |  | 0.369 | 0.389 | 1.03 | 1 | 1.08 | 0.573 | 0.941 |
| NCI-H2405 | 0.386 | 0.478 | 0.479 | 0.396 | 1.05 | 0.944 | 0.96 | 0.826 | 0.616 | 0.676 | 0.642 | 0.698 | 1.04 | 1.01 | 0.992 | 0.731 | 0.885 |
| NCI-H3122 | 0.626 | 0.49 | 0.656 | 0.61 | 1.01 | 0.994 | 1.01 | 1.02 | 1.04 | 0.915 | 0.967 | 0.928 | 0.965 | 0.976 |  | 0.421 | 1.01 |
| PC-3 [JPC-3] | 0.657 | 0.724 | 0.732 | 0.598 | 0.787 | 0.829 | 0.881 | 0.757 | 0.587 | 0.74 | 0.799 | 0.701 | 0.918 | 0.981 | 1.05 | 0.88 | 0.733 |
| PC-14 | 0.14 | 0.541 | 0.593 | 0.725 | 0.861 | 0.9 | 1.03 | 0.896 |  | 0.795 | 1.06 | 0.523 | 0.81 | 0.904 | 1.1 | 0.601 | 0.638 |
| RERF-LC-KJ | 0.503 | 0.594 | 0.597 | 0.456 | 0.983 | 1.11 | 1.12 | 0.96 |  | 0.597 | 0.59 | 0.484 | 0.942 | 0.914 | 1.04 | 0.491 | 0.895 |
| SK-LU-1 | 0.71 | 0.508 | 0.639 | 0.458 | 1.18 | 1.07 | 1.27 | 0.813 | 0.466 | 0.371 | 0.358 | 0.301 | 1.09 | 1.11 | 1.14 | 0.334 | 0.964 |
| SW 1573 | 0.541 | 0.541 | 0.546 | 0.293 | 1.15 | 1.07 | 1.22 | 0.744 | 0.619 | 0.526 | 0.512 | 0.204 | 1.02 | 0.904 | 0.945 | 0.191 | 0.48 |
| UMC-11 | 1.09 | 0.788 | 0.864 | 0.463 | 0.729 | 0.621 | 0.768 | 0.186 | 0.538 | 0.471 | 0.512 | 0.171 | 1.03 | 0.898 | 0.966 | 0.206 | 0.342 |
